Source: ChEMBL document CHEMBL1138862 (J Med Chem, 2006)

Assays:
Format in all cases: functional
[1] = test system: Escherichia coli; assay: Antibacterial activity against Escherichia coli W3110
[2] = test system: Escherichia coli; assay: Antibacterial activity against Escherichia coli pTMV19 in presence of mevalonate
[3] = test system: Escherichia coli; assay: Antibacterial activity against Escherichia coli pTMV19

SMILES | inhibition zone (IZ) [1] [mm] | inhibition zone (IZ) [2] [mm] | inhibition zone (IZ) [3] [mm]
Cc1cccnc1NCC(P(=O)(O)O)S(=O)(=O)O (stereo unspecified) | 0 |  | 
O=P(O)(O)C(O)(Cc1cccc(C(F)(F)F)c1)P(=O)(O)O | 7 | 0 | 7
CC(C)c1cccc(C(C)C)c1NC(P(=O)(O)O)P(=O)(O)O | 0 |  | 
O=P(O)(O)C(Nc1cccc(-c2ccccc2)c1)P(=O)(O)O | 8 | 0 | 8
CCCNC(P(=O)(O)O)P(=O)(O)O [(PROPYLAMINO)METHYLENEDIPHOSPHONIC ACID] | 0 |  | 
CC1CC(C)CN(C(P(=O)(O)O)P(=O)(O)O)C1 (stereo unspecified) | 0 |  | 
CCC(C)CNC(P(=O)(O)O)P(=O)(O)O (stereo unspecified) | 0 |  | 
O=P(O)(O)C(CNc1cccnc1)P(=O)(O)O | 0 |  | 
O=P(O)(O)C(Nc1ccc2c(c1)CCC2)P(=O)(O)O | 0 |  | 
O=P(O)(O)C(O)(Cc1cccnc1)P(=O)(O)O [RISEDRONIC ACID] | 0 |  | 
O=P(O)(O)C(Nc1cc2ccccc2cn1)P(=O)(O)O | 0 |  | 
NC[C@@H]1O[C@H](O[C@H]2[C@@H](O)[C@H](O[C@@H]3[C@@H](O)[C@H](N)C[C@H](N)[C@H]3O[C@H]3O[C@H](CN)[C@@H](O)[C@H](O)[C@H]3N)O[C@@H]2CO)[C@H](N)[C@@H](O)[C@@H]1O [FRAMYCETIN] | 15 | 12 | 18
O=C(N[C@H](CO)[C@H](O)c1ccc([N+](=O)[O-])cc1)C(Cl)Cl [CHLORAMPHENICOL] | 24 | 19 | 20
O=P(O)(O)C(Nc1ncccc1COc1ccccc1)P(=O)(O)O | 0 |  | 
CCC1CCCCN1C(P(=O)(O)O)P(=O)(O)O (stereo unspecified) | 0 |  | 
CCCCCCCCNC(P(=O)(O)O)P(=O)(O)O [(OCTYLAMINO)METHYLENEDIPHOSPHONIC ACID] | 0 |  | 
O=P(O)(O)CC(c1ccncc1)P(=O)(O)O (stereo unspecified) | 0 |  | 
O=P(O)(O)C(Nc1ncc(Br)cc1Br)P(=O)(O)O | 0 |  | 
CCCCCCCc1ccc(NC(P(=O)(O)O)P(=O)(O)O)cc1 | 0 | 0 | 0
O=P(O)(O)C(N1CCCCCCC1)P(=O)(O)O [N-(HEPTAMETHYLENEIMINO)METHYLENEBISPHOSPHONIC ACID] | 0 |  | 
CCn1c2ccccc2c2cc(NC(P(=O)(O)O)P(=O)(O)O)ccc21 | 0 | 0 | 0
O=P(O)(O)C(CNc1ccccn1)P(=O)(O)O | 0 |  | 

SMILES | inhibition zone (IZ) [1] [mm] | inhibition zone (IZ) [2] [mm] | inhibition zone (IZ) [3] [mm]
O=P(O)(O)C(O)(CSc1ccncc1)P(=O)(O)O | 0 |  | 
CCCCCCCCCCCCCCCCCC(O)(P(=O)(O)O)P(=O)(O)O | 0 |  | 
O=P(O)(O)C(Nc1ccccn1)P(=O)(O)O | 7 | 12 | 8
CCCCCCCCC(O)(P(=O)(O)O)P(=O)(O)O | 9 | 0 | 7
CCCCCCCCCCCC(O)(P(=O)(O)O)P(=O)(O)O | 0 |  | 
CC(C)c1cccc(NC(P(=O)(O)O)P(=O)(O)O)c1 | 8 | 0 | 9
NCCCCC(O)(P(=O)(O)O)P(=O)(O)O | 0 |  | 
NC[C@H]1O[C@H](O[C@H]2[C@H](O)[C@@H](O[C@H]3O[C@H](CO)[C@@H](O)[C@H](N)[C@H]3O)[C@H](N)C[C@@H]2N)[C@H](O)[C@@H](O)[C@@H]1O [KANAMYCIN] | 21 | 17 | 22
CCCCCCC(CCCC)C(O)(P(=O)(O)O)P(=O)(O)O (stereo unspecified) | 0 | 0 | 0
O=P(O)(O)C(NC1CCCCCC1)P(=O)(O)O [INCADRONIC ACID] | 0 |  | 
CCCN(CCC)C(P(=O)(O)O)P(=O)(O)O [(DIPROPYLAMINO)METHYLENEDIPHOSPHONIC ACID] | 0 |  | 
CC1CCCCN1C(P(=O)(O)O)P(=O)(O)O (stereo unspecified) | 0 |  | 
CCCCC(O)(P(=O)(O)O)P(=O)(O)O | 0 |  | 
O=P(O)(O)C(NC1CCCC1)P(=O)(O)O [(CYCLOPENTYLAMINO)METHYLENEDIPHOSPHONIC ACID] | 0 |  | 
CCC(C)NC(P(=O)(O)O)P(=O)(O)O (stereo unspecified) | 0 |  | 
CN(Cc1ccccc1)C(P(=O)(O)O)P(=O)(O)O | 0 |  | 
CCCCCCc1ccc(NC(P(=O)(O)O)P(=O)(O)O)cc1 | 0 | 0 | 0
O=P(O)(O)C(O)(Cc1ccccn1)P(=O)(O)O | 0 |  | 
CO[C@@H]1[C@@H](OC(N)=O)[C@@H](O)[C@H](Oc2ccc3c(O)c(NC(=O)c4ccc(O)c(CC=C(C)C)c4)c(=O)oc3c2C)OC1(C)C [NOVOBIOCIN] | 9 | 15 | 9
CCCCCN(C)CCC(O)(P(=O)(O)O)P(=O)(O)O [IBANDRONIC ACID] | 0 |  | 
Cc1cc(C)nc(NC(P(=O)(O)O)P(=O)(O)O)c1 | 11 | 0 | 7
CCCCOc1ccc(NC(P(=O)(O)O)P(=O)(O)O)cc1 | 0 |  | 

SMILES | inhibition zone (IZ) [1] [mm] | inhibition zone (IZ) [2] [mm] | inhibition zone (IZ) [3] [mm]
CC(C)(C)c1cc(NC(P(=O)(O)O)P(=O)(O)O)cc(C(C)(C)C)c1 | 0 |  | 
O=P(O)(O)CC(c1cccnc1)P(=O)(O)O (stereo unspecified) | 0 |  | 
CC(C)CCNC(P(=O)(O)O)P(=O)(O)O [(ISOPENTYLAMINO)METHYLENEDIPHOSPHONIC ACID] | 0 |  | 
O=P(O)(O)C(Sc1ccccn1)P(=O)(O)O | 0 | 0 | 0
O=P(O)(O)CC(c1ccccn1)P(=O)(O)O (stereo unspecified) | 0 | 0 | 0
CCc1cccc(NC(P(=O)(O)O)P(=O)(O)O)n1 | 0 |  | 
O=P(O)(O)C(Nc1cc(Cl)cc(Cl)c1)P(=O)(O)O [(3,5-DICHLOROPHENYLAMINO)METHYLENEDIPHOSPHONIC ACID] | 0 | 8 | 10
Nc1ccc(CC(O)(P(=O)(O)O)P(=O)(O)O)cc1 | 0 |  | 
CCCCNC(P(=O)(O)O)P(=O)(O)O [(BUTYLAMINO)METHYLENEDIPHOSPHONIC ACID] | 0 |  | 
O=P(O)(O)C(Nc1cccnc1)P(=O)(O)O | 0 |  | 
O=P(O)(O)C(Nc1cccnc1Cl)P(=O)(O)O | 0 |  | 
CCc1ccc(NC(P(=O)(O)O)P(=O)(O)O)cc1 | 0 |  | 
NCCC(O)(P(=O)(O)O)P(=O)(O)O [PAMIDRONIC ACID] | 0 |  | 
O=P(O)(O)C(O)(C1CC1)P(=O)(O)O [CYCLOPROPYL(HYDROXY)METHYLENEDIPHOSPHONIC ACID] | 0 |  | 
O=P(O)(O)C(N1CCCCC1)P(=O)(O)O | 0 |  | 
CC1CCCN(C(P(=O)(O)O)P(=O)(O)O)C1 (stereo unspecified) | 0 |  | 
CCCCCCC(O)(P(=O)(O)O)P(=O)(O)O | 0 |  | 
CCc1cccc(NC(P(=O)(O)O)P(=O)(O)O)c1 | 0 |  | 
O=P(O)(O)C(O)(Cc1cccc(F)c1)P(=O)(O)O | 0 |  | 
CC1CCN(C(P(=O)(O)O)P(=O)(O)O)CC1 | 0 |  | 
CCCCCCCCCNC(P(=O)(O)O)P(=O)(O)O [(NONYLAMINO)METHYLENEDIPHOSPHONIC ACID] | 0 |  | 
O=P(O)(O)C(O)(Cc1ccncc1)P(=O)(O)O | 0 |  | 

SMILES | inhibition zone (IZ) [1] [mm] | inhibition zone (IZ) [2] [mm] | inhibition zone (IZ) [3] [mm]
O=P(O)(O)C(Nc1ccc(Cl)cc1Cl)P(=O)(O)O [2,4-DICHLOROPHENYLAMINOMETHYLENEBISPHOSPHONIC ACID] | 0 |  | 
O=P(O)(O)C(Nc1c(F)c(F)c(F)c(F)c1F)P(=O)(O)O | 0 |  | 
O=P(O)(O)C(N1CCSCC1)P(=O)(O)O [THIOMORPHOLINOMETHYLENEDIPHOSPHONIC ACID] | 0 |  | 
O=P(O)(O)C(=Nc1cccnc1)P(=O)(O)O | 0 |  | 
O=P(O)(O)Cc1cccc(CP(=O)(O)O)c1 | 0 |  | 
O=P(O)(O)C(O)(Cc1cn2ccccc2n1)P(=O)(O)O | 0 |  | 
O=P(O)(O)C(Nc1ccc(Cl)nc1)P(=O)(O)O | 0 |  | 
CC(N)CC(O)(P(=O)(O)O)P(=O)(O)O (stereo unspecified) | 0 |  | 
O.O=P(O)(O)C(O)(Cn1ccnc1)P(=O)(O)O [ZOLEDRONIC ACID] | 0 |  | 
O=P(O)(O)C(Nc1cccc(Oc2ccccc2)c1)P(=O)(O)O | 0 |  | 
CCCCc1ccc(NC(P(=O)(O)O)P(=O)(O)O)cc1 | 0 |  | 
Cc1nc(NC(P(=O)(O)O)P(=O)(O)O)c(Br)cc1Br | 0 |  | 
CCCCCCCCCCCCCC(O)(P(=O)(O)O)P(=O)(O)O | 0 |  | 
O=P(O)(O)C(O)(CCc1cccnc1)P(=O)(O)O | 0 |  | 
CCCC(O)(P(=O)(O)O)P(=O)(O)O | 0 |  | 
NCCCCCC(O)(P(=O)(O)O)P(=O)(O)O [NERIDRONIC ACID] | 0 |  | 
O=P(O)(O)C(O)(Cc1ccccc1)P(=O)(O)O | 0 |  | 
CC1CCCC(C)N1C(P(=O)(O)O)P(=O)(O)O (stereo unspecified) | 0 |  | 
O=P(O)(O)C(NC1CCC1)P(=O)(O)O [(CYCLOBUTYLAMINO)METHYLENEDIPHOSPHONIC ACID] | 0 |  | 
CCCCCCCCCCCCCCCC(O)(P(=O)(O)O)P(=O)(O)O | 0 |  | 
O=P(O)(O)C(O)(C1CCC1)P(=O)(O)O [CYCLOBUTYL(HYDROXY)METHYLENEDIPHOSPHONIC ACID] | 0 |  | 
